According to patent publication EP4748841A1, “BICYCLO[5,6] IMIDAZOLE PYRIMIDONE DERIVATIVE AND PREPARATION METHOD THEREFOR AND USE THEREOF” (Shujing Biopharma Co., Ltd, priority 2023, dated 2025):

Biological target: T1, Lp-PLA2 (Homo sapiens, UniProt Q13093)
T1 construct: from tissue; host or cells: pooled (mixed) human plasma
T1 sequence (Q13093 22-441): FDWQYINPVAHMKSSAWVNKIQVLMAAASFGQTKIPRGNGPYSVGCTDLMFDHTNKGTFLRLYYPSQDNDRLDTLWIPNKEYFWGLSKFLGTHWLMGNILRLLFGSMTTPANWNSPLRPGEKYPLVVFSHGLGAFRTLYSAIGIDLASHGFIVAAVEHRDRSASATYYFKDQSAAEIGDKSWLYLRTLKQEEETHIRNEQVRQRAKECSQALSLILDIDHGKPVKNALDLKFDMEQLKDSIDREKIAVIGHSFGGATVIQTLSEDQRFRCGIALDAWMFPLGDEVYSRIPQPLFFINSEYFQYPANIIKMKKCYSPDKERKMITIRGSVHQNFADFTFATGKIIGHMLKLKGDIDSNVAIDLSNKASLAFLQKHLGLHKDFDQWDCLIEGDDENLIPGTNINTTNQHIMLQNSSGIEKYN
Assay: Inhibitory activity against Lp-PLA2 in human plasma (Thio-PAF assay)
Type: biochemical
Conditions: 2-thio-PAF substrate, 30 min pre-incubation
Description: The literature reports that 2-Thio-PAF, commercially available from Cayman Chemical, is a substrate for PAF hydrolase (PAF-AH). After its cleavage by PAF-AH, the free thiol released at the sn-2 position can react with 7-diethylamino-3-(4'-maleimidophenyl)-4-methylcoumarin (CPM), resulting in increased fluorescence. Thus, Lp-PLA2 inhibitors can prevent this cleavage, and no increase in fluorescence is observed. In this experiment, the human plasma assay employed the same thioester analog of PAF as described in the recombinant human Lp-PLA2 assay described above.
• (1) The Thio-PAF assay was performed as a quenched 75 µL assay. A compound source plate was prepared by preparing 1:4 (v/v) serial diluents of the compounds in pure DMSO in a 96-well microplate. • (2) 1 µL of each test compound from the compound source plate was transferred into a 96-well microplate containing 40 µL of pre-thawed mixed human plasma by a Rainin multichannel pipette, and the plasma was thawed at room temperature and centrifuged at 2000 rpm for 10 min. The plate was shaken on a microplate shaker for 2 min for uniform mixing. • (3) After 30 min of pre-incubation at room temperature, 10 µL of a substrate solution was added sequentially to the 96-well microplate described above by a Rainin multichannel pipette. The substrate solution contained 2.5 mM 2-thio-PAF (from an ethanol mother liquor), 32 µM CPM (from a DMSO mother liquor), and 3.2 mM N-ethylmaleimide (freshly prepared in DMSO for each experiment) in assay buffer (pH 7.4) consisting of 50 mM HEPES, 150 mM NaCl, and 1 mM CHAPS. After the addition was completed, the plate was immediately shaken for 2 min, and the reaction time for the substrate was 4 min in total. After the reaction was completed, the reaction was quenched with 25 µL of an aqueous solution of 5% trifluoroacetic acid. The plate was centrifuged at 1000 rpm for 1 min. • (4) The FLINT signal (FLINT380/480) was read using a microplate reader. • (5) IC50 data, curve fitting, and QC analyses were performed using GraphPad Prism 8.0 and Excel.

Question: Which IC50 does the source give for `N#Cc1cc(COc2cc3n(c(=O)n2)CC2CCN32)ccc1Oc1cccc(C(F)(F)F)c1` (stereo not shown) [Example 22, 5-(((1-Oxo-6,7,7a,8-tetrahydro-1H-azeto[1',2':3,4]imidazo[1,2-c]pyrimidin-3-yl)oxy)methyl)-2-(3-(trifluoromethyl)phenoxy)benzonitrile] here?
Answer: 4.6 nM

Question: How did the IC50 turn out when `N#Cc1cc(Oc2ccc(COc3cc4n(c(=O)n3)CC3CCN43)cc2F)ccc1Cl` (stereo not shown) [Example 53, 2-Chloro-5-(2-fluoro-4-(((1-oxo-6,7,7a,8-tetrahydro-1H-azeto[1',2':3,4]imidazo[1,2-c]pyrimidin-3-yl)oxy)methyl)phenoxy)benzonitrile] was run?
Answer: 107 nM

Question: For `N#Cc1ccc(COc2cc3n(c(=O)n2)CC2CCN32)cc1` (stereo not shown) [Example 28, 3-((4-Cyanobenzyl)oxy)-6,7,7a,8-tetrahydro-1H-azeto[1',2':3,4]imidazo[1,2-c]pyrimidin-1-one], which IC50 is on record?
Answer: 892 nM

Question: For `O=c1nc(OCc2ccc(Oc3cnc(C(F)(F)F)nc3)c(F)c2)cc2n1CC1CCN21` (stereo not shown) [Example 51], which IC50 is on record?
Answer: 21.2 nM

Question: With `O=c1nc(OCc2ccc(F)cc2)cc2n1CC1CCN21` (stereo not shown) [Example 7, 3-((4-Fluorobenzyl)oxy)-6,7,7a,8-tetrahydro-1H-azeto[1',2':3,4]imidazo[1,2-c]pyrimidin-1-one] as the compound, how does the IC50 read?
Answer: 68.7 nM

Question: With `Cc1ccc(Oc2c(F)cc(COc3cc4n(c(=O)n3)C[C@@H]3CCN43)cc2F)cn1` [Example 36-S] as the compound, how does the IC50 read?
Answer: 96.4 nM

Question: Which IC50 does the source give for `O=c1nc(OCc2ccc(Oc3ccccc3)nc2)cc2n1CC1CCN21` (stereo not shown) [Example 16, 3-((6-Phenoxypyridin-3-yl)methoxy)-6,7,7a,8-tetrahydro-1H-azeto[1',2':3,4]imidazo[1,2-c]pyrimidin-1-one] here?
Answer: 2740 nM

Question: How did the IC50 turn out when `O=c1nc(OCc2ccc(Oc3ccc(F)c(F)c3)c(F)c2)cc2n1CC1CCN21` (stereo not shown) [Example 24, 3-((4-(3,4-Difluorophenoxy)-3-fluorobenzyl)oxy)-6,7,7a,8-tetrahydro-1H-azeto[1',2':3,4]imidazo[1,2-c]pyrimidin-1-one] was run?
Answer: 12.7 nM

Question: How did the IC50 turn out when `Cc1ncc(Oc2c(F)cc(COc3cc4n(c(=O)n3)CC3CCN43)cc2F)cn1` (stereo not shown) [Example 44] was run?
Answer: 25.6 nM

Question: For `N#Cc1cc(COc2cc3n(c(=O)n2)CC2CCN32)ccc1Oc1ccc(C(F)(F)F)cn1` (stereo not shown) [Example 21, 5-(((1-Oxo-6,7,7a,8-tetrahydro-1H-azeto[1',2':3,4]imidazo[1,2-c]pyrimidin-3-yl)oxy)methyl)-2-((5-(trifluoromethyl)pyridin-2-yl)oxy)benzonitrile], which IC50 is on record?
Answer: 200 nM

Question: How did the IC50 turn out when `O=c1nc(OCc2cc(F)c(Oc3ccc(C(F)(F)F)nc3)c(F)c2)cc2n1CC1CCN21` (stereo not shown) [Example 52] was run?
Answer: 4.3 nM

Question: Which IC50 does the source give for `O=c1nc(OCc2ccc(F)c(F)c2)cc2n1CC1CCN21` (stereo not shown) [Example 54, 3-((3,4-Difluorobenzyl)oxy)-6,7,7a,8-tetrahydro-1H-azeto[1',2':3,4]imidazo[1,2-c]pyrimidin-1-one] here?
Answer: 30.3 nM

Question: `O=c1nc(OCc2ccc(Oc3ccc(C(F)(F)F)nc3)c(F)c2)cc2n1CC1CCN21` (stereo not shown) [Example 1] was tested. Which IC50 did it give?
Answer: 3.9 nM

Question: `Cc1ccc(Oc2c(F)cc(COc3cc4n(c(=O)n3)CC3CCN43)cc2F)cn1` (stereo not shown) [Example 36] was tested. Which IC50 did it give?
Answer: 35.8 nM

Question: How did the IC50 turn out when `Cc1ccc(COc2cc3n(c(=O)n2)CC2CCN32)cc1` (stereo not shown) [Example 8, 3-((4-Methylbenzyl)oxy)-6,7,7a,8-tetrahydro-1H-azeto[1',2':3,4]imidazo[1,2-c]pyrimidin-1-one] was run?
Answer: 2430 nM

Question: How did the IC50 turn out when `O=c1nc(OCc2cc(F)c(Oc3ccnc(C(F)(F)F)c3)c(F)c2)cc2n1C[C@@H]1CCN21` [Example 34-S] was run?
Answer: 52.3 nM

Question: With `O=c1nc(OCc2ccc(Oc3ccc(Cl)c(C(F)(F)F)c3)cc2)cc2n1CC1CCN21` (stereo not shown) [Example 50, 3-((4-(4-Chloro-3-(trifluoromethyl)phenoxy)benzyl)oxy)-6,7,7a,8-tetrahydro-1H-azeto[1',2':3,4]imidazo[1,2-c]pyrimidin-1-one] as the compound, how does the IC50 read?
Answer: 12.6 nM

Question: Which IC50 does the source give for `Cc1ccc(Oc2c(F)cc(COc3cc4n(c(=O)n3)C[C@H]3CCN43)cc2F)cn1` [Example 36-R] here?
Answer: 15.9 nM

Question: For `Cn1cc(Oc2c(F)cc(COc3cc4n(c(=O)n3)CC3CCN43)cc2F)cn1` (stereo not shown) [Example 45], which IC50 is on record?
Answer: 203 nM

Question: How did the IC50 turn out when `O=c1nc(OCc2cnc(Oc3ccc(Cl)c(C(F)(F)F)c3)c(F)c2)cc2n1CC1CCN21` (stereo not shown) [Example 38, 3-((6-(4-Chloro-3-(trifluoromethyl)phenoxy)-5-fluoropyridin-3-yl)methoxy)-6,7,7a,8-tetrahydro-1H-azeto[1',2':3,4]imidazo[1,2-c]pyrimidin-1-one] was run?
Answer: 56.3 nM

Question: How did the IC50 turn out when `N#Cc1cc(COc2cc3n(c(=O)n2)CC2CCN32)ccc1Oc1ccc(Cl)c(C(F)(F)F)c1` (stereo not shown) [Example 39, 2-(4-Chloro-3-(trifluoromethyl)phenoxy)-5-(((1-oxo-6,7,7a,8-tetrahydro-1H-azeto[1',2':3,4]imidazo[1,2-c]pyrimidin-3-yl)oxy)methyl)benzonitrile] was run?
Answer: 3.9 nM

Question: For `O=c1nc(OCc2ccc(Oc3ccnc(C(F)(F)F)c3)c(F)c2)cc2n1CC1CCN21` (stereo not shown) [Example 23], which IC50 is on record?
Answer: 4.3 nM

Question: How did the IC50 turn out when `O=c1nc(OCc2cc(F)c(Oc3ccnc(C(F)(F)F)c3)c(F)c2)cc2n1CC1CCN21` (stereo not shown) [Example 34] was run?
Answer: 5.2 nM

Question: How did the IC50 turn out when `O=c1nc(OCc2ccc(Oc3ccccc3)cc2)cc2n1CC1CCN21` (stereo not shown) [Example 12, 3-((4-Phenoxybenzyl)oxy)-6,7,7a,8-tetrahydro-1H-azeto[1',2':3,4]imidazo[1,2-c]pyrimidin-1-one] was run?
Answer: 2090 nM

Question: Which IC50 does the source give for `O=c1nc(OCc2ccc(Oc3ccc(F)c(C(F)(F)F)c3)nc2)cc2n1CC1CCN21` (stereo not shown) [Example 41, 3-((6-(4-Fluoro-3-(trifluoromethyl)phenoxy)pyridin-3-yl)methoxy)-6,7,7a,8-tetrahydro-1H-azeto[1',2':3,4]imidazo[1,2-c]pyrimidin-1-one] here?
Answer: 292 nM
